This is an account of results in patent publication US8884023B2, “Pyrano [3,2-D][1,3]thiazole as glycosidase inhibitors” (priority 2011, dated 2014).

Experiment [1] has as its target T1, His-Tagged hOGA (human O-GlcNAcase) (Homo sapiens, UniProt O60502).
T1 sequence (O60502 1-916): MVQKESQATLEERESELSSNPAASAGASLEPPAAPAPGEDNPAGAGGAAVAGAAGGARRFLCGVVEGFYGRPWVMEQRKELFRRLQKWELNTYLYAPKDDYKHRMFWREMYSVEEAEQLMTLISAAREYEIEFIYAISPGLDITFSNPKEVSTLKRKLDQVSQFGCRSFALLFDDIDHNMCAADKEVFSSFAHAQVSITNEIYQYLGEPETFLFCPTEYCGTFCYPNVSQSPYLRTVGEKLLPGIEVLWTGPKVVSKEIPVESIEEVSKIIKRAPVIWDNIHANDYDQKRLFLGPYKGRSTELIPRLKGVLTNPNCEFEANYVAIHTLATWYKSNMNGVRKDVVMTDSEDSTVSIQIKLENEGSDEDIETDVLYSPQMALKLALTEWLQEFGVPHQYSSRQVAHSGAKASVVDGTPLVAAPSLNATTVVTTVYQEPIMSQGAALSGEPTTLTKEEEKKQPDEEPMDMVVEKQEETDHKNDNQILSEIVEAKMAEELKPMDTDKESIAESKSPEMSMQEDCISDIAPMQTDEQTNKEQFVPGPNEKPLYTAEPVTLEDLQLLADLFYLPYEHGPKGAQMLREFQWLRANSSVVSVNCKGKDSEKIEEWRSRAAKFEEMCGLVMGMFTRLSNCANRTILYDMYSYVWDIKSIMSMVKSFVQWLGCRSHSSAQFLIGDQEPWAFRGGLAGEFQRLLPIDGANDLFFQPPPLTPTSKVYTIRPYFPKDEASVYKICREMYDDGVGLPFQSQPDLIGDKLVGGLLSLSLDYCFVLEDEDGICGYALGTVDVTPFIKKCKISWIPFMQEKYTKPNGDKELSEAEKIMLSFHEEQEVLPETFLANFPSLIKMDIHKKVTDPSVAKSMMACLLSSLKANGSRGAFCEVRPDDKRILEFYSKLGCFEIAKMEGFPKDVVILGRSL
The experiment can be described thus: biochemical. On the procedure: Human O-GlcNAcase Enzyme Inhibition Assay
The following reaction components were added to a final volume of 10 μL in McIlvaine's Buffer (pH 6.5):
20 nM His-Tagged hOGA and 10 μM Fluoroscein mono-beta-D-(2-deoxy-2-N-acetyl) glucopyranoside (FL-GlcNAc; Marker Gene Technologies Inc, Part #M1485). […] The amount of fluorescence measured was plotted against the concentration of inhibitor to produce a sigmoidal dose response curve, from which an IC50 was calculated.

Experiment [2] deals with T2, O-GlcNAcase (UniProt Q8VIJ5).
T2 sequence (Q8VIJ5 1-916): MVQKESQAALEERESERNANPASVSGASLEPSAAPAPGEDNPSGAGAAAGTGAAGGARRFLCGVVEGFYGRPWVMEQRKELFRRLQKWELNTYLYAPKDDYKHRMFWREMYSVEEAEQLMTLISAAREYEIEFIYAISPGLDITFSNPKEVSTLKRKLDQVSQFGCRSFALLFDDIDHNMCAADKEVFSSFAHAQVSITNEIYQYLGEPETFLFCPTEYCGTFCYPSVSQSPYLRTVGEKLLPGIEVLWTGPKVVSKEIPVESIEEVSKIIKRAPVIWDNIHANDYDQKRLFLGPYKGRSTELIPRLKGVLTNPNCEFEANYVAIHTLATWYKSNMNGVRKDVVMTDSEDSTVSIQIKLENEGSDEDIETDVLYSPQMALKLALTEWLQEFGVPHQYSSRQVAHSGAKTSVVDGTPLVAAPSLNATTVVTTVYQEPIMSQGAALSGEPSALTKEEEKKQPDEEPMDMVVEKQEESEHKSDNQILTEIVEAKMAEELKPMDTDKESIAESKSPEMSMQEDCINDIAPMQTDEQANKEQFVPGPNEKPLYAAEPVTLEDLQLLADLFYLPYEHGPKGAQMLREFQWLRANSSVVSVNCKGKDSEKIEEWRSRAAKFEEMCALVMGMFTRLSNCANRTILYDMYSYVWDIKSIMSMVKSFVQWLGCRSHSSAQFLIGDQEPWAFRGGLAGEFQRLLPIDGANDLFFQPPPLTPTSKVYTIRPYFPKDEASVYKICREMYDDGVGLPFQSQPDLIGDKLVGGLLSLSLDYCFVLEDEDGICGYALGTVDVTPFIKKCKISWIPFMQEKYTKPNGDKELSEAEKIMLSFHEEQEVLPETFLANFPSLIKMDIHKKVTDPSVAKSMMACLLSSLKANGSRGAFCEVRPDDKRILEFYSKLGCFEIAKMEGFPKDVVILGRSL
Type of experiment: cell-based. The note with it: cells expressing endogenous O-GlcNAcase (such as rat B35, rat PC-12, human SH-SY5Y), approximately 16 hours treatment; read-out: OGA cellular inhibition (EC50). From the text:
Assay for the Determination of Cellular Activity for Compounds that Inhibit O-GlcNAcase Activity
Inhibition of O-GlcNAcase, which removes O-GlcNAc from cellular proteins, results in an increase in the level of O-GlcNAcylated proteins in cells. An increase in the O-GlcNAcylation of cellular proteins can be measured by an antibody, such as CTD110.6, that binds O-GlcNAcylated proteins. The amount of O-GlcNAcylated protein can be determined by the enzyme linked immunoabsorbant assay (ELISA) technique.
Cell lines, such as rat B35, rat PC-12 and human SH-SY5Y cells, expressing endogenous levels of O-GlcNAcase, could be utilized. Cells were plated in 96-well plates at a density of approximately 10,000 cells/well. Compounds to be tested were dissolved in DMSO as 10 mM stock solution, and then diluted first with DMSO and then culture media using the Bravo workstation. Cells were treated with diluted compounds for approximately 16 hours. […] To prepare a cell lysate, the media from compound treated cells were removed, and the cells were washed once with Dulbecco's phosphate buffered saline (DPBS) and then lysed for 30 minutes in 100 μl/well of ice cold RIPA buffer containing a protease inhibitor cocktail.
The ELISA portion of the assay was performed in EIA/RIA plates that were coated overnight at 4 C with 80 μl/well of cell lysate. The following day the wells were washed 6 times with 200 μl of wash buffer (0.05% Tween20 in DPBS). The wells were blocked with 200 μl blocking buffer (1% BSA, 0.05% Tween20 in DPBS) for 1 h at room temperature. Each well was then washed 6 times with 200 μl of wash buffer. The anti-O-GlcNAc antibody CTD110.6 (Covance, Princeton, N.J.) was added at 100 μl/well at a concentration of 10 μg/ml. The plates were incubated for 1 h at room temperature. The wells were then washed 6 times with 200 μl/well of wash buffer. To detect the amount of CTD110.6 bound to the cell lysate, alkaline phosphatase conjugated goat anti-mouse IgM (diluted 1:500 in blocking buffer) was added at 100 μl/well and incubated for 45 min at room temperature. Each well was then washed 6 times with 200 μl/well of wash buffer. PNPP tablets dissolved in diethanolamine substrate buffer and 100 μl/well were added as detection reagent.
The amount of O-GlcNAcylated protein, as detected by the ELISA assay, was plotted for each concentration of test compound using standard curve fitting algorithms for sigmoidal dose response curves. The values for a four parameter logistic curve fit of the data were determined, with the inflection point of the curve being the potency value for the test compound.

Where [3] appears, read: read-out: OGA enzyme inhibition (IC50).

pEC50, pIC50: −log10 of the molar value. Where two headings read alike, the source gives them in different places.

A word on the pIC50: it is −log10 of the IC50, conventionally taken in molar units. In general, pEC50 refers to −log10 of the EC50, conventionally taken in molar units.

As for `CCNC1=N[C@@H]2[C@@H](O)[C@H](O)[C@@H](COC(=O)OC(C)(C)C)O[C@@H]2S1` [compound no. 3, tert-butyl [(3aR,5R,6S,7R,7aR)-2-(ethylamino)-6,7-dihydroxy-5,6,7,7a-tetrahydro-3aH-pyrano[3,2-d][1,3]thiazol-5-yl]methyl carbonate], the pIC50 in experiment [1] (setting [3]) was 6.30 to 7.00. Moreover, the negative logarithm of the EC50 (pEC50) in experiment [2] was > 7.00.

With `CCNC1=N[C@@H]2[C@@H](O)[C@H](O)[C@@H](CN(C)C)O[C@@H]2S1` [compound no. 51, (3aR,5R,6S,7R,7aR)-5-[(dimethylamino)methyl]-2-(ethylamino)-5,6,7,7a-tetrahydro-3aH-pyrano[3,2-d][1,3]thiazole-6,7-diol], the negative-log IC50 (pIC50) in experiment [1] (setting [3]) is 6.30 to 7.00. Also, the negative-log EC50 (pEC50) in experiment [2] is 6.30 to 7.00.

With `CCNC1=N[C@@H]2[C@@H](O)[C@H](O)[C@@H](Cn3cc(COc4ccc(C)cc4)nn3)O[C@@H]2S1` [compound 91], the pIC50 in experiment [1] (setting [3]) was 6.30 to 7.00. Further, the pEC50 in experiment [2] was < 6.00.

In the case of `CCNC1=N[C@@H]2[C@@H](O)[C@H](O)[C@@H](Cn3cc(C(O)(c4ccccc4)C(F)(F)F)nn3)O[C@@H]2S1` (stereo partly drawn) [compound 70], the negative-log IC50 (pIC50) in experiment [1] is > 7.00. Besides, in experiment [2], the negative logarithm of the EC50 (pEC50) is < 6.00.

`CCNC1=N[C@@H]2[C@@H](O)[C@H](O)[C@@H](Cn3cc(COc4cccc(F)c4)nn3)O[C@@H]2S1` [compound 79]: in experiment [1] (setting [3]), the pIC50 is > 7.00. Moreover, the pEC50 in experiment [2] was 6.30 to 7.00.

For `CCNC1=N[C@@H]2[C@@H](O)[C@H](O)[C@@H](Cn3cc(COc4cccc(C)c4)nn3)O[C@@H]2S1` [compound 77], the negative-log IC50 (pIC50) in experiment [1] (setting [3]) is > 7.00. For the same compound, in experiment [2], the negative logarithm of the EC50 (pEC50) is 6.30 to 7.00.

Regarding `CCNC1=N[C@@H]2[C@@H](O)[C@H](O)[C@@H](CBr)O[C@@H]2S1` [compound no. 5, (3aR,5S,6S,7R,7aR)-5-(bromomethyl)-2-(ethylamino)-5,6,7,7a-tetrahydro-3aH-pyrano[3,2-d][1,3]thiazole-6,7-diol], the negative-log IC50 (pIC50) in experiment [1] (setting [3]) was > 7.00. For the same compound, the pEC50 in experiment [2] was 6.30 to 7.00.

Regarding `CCNC1=N[C@@H]2[C@@H](O)[C@H](O)[C@@H](Cn3cc(Cn4nnc5ccccc54)nn3)O[C@@H]2S1` [compound no. 57, (3aR,5R,6S,7R,7aR)-5-{[4-(1H-1,2,3-benzotriazol-1-ylmethyl)-1H-1,2,3-triazol-1-yl]methyl}-2-(ethylamino)-5,6,7,7a-tetrahydro-3aH-pyrano[3,2-d][1,3]thiazole-6,7-diol], the pIC50 in experiment [1] was > 7.00. Moreover, in experiment [2], the negative logarithm of the EC50 (pEC50) was < 6.00.

Consider `CCNC1=N[C@@H]2[C@@H](O)[C@H](O)[C@@H](Cn3cc(COc4cccc(O)c4)nn3)O[C@@H]2S1` [compound 74], for which the pIC50 in experiment [1] (setting [3]) is > 7.00. In addition, the pEC50 in experiment [2] is < 6.00.

`CCNC1=N[C@@H]2[C@@H](O)[C@H](O)[C@@H](Cn3cc(COc4ccccc4Cl)nn3)O[C@@H]2S1` [compound 86]: in experiment [1], the pIC50 was > 7.00. For the same compound, the negative-log EC50 (pEC50) in experiment [2] was > 7.00.

In the case of `CCNC1=N[C@@H]2[C@@H](O)[C@H](O)[C@@H](Cn3cc(COc4ccccc4O)nn3)O[C@@H]2S1` [compound 84], the pIC50 in experiment [1] was 6.30 to 7.00. Moreover, the pEC50 in experiment [2] is < 6.00.

Consider `CCNC1=N[C@@H]2[C@@H](O)[C@H](O)[C@@H](CCl)O[C@@H]2S1` [compound no. 32, (3aR,5S,6S,7R,7aR)-5-(chloromethyl)-2-(ethylamino)-5,6,7,7a-tetrahydro-3aH-pyrano[3,2-d][1,3]thiazole-6,7-diol], for which, in experiment [1] (setting [3]), the pIC50 is > 7.00. Besides, the negative-log EC50 (pEC50) in experiment [2] is > 7.00.

For the compound `CCNC1=N[C@@H]2[C@@H](O)[C@H](O)[C@@H](Cn3cc(COc4cccc(Cl)c4)nn3)O[C@@H]2S1` [compound 78], the pIC50 in experiment [1] is > 7.00. Moreover, the negative logarithm of the EC50 (pEC50) in experiment [2] is > 7.00.

`CCNC1=N[C@@H]2[C@@H](O)[C@H](O)[C@@H](Cn3cc(COc4cccc(Br)c4)nn3)O[C@@H]2S1` [compound 72]: the negative-log IC50 (pIC50) in experiment [1] (setting [3]) was > 7.00. In experiment [2], the negative logarithm of the EC50 (pEC50) is 6.30 to 7.00.

Consider `CCNC1=N[C@@H]2[C@@H](O)[C@H](O)[C@@H](Cn3cc(COc4cccc(CO)c4)nn3)O[C@@H]2S1` [compound 75], for which the pIC50 in experiment [1] is > 7.00. The pEC50 in experiment [2] is < 6.00.

Regarding `CCNC1=N[C@@H]2[C@@H](O)[C@H](O)[C@@H](Cn3cc(COc4ccc(F)cc4)nn3)O[C@@H]2S1` [compound 93], the pIC50 in experiment [1] (setting [3]) was > 7.00. Also, the negative-log EC50 (pEC50) in experiment [2] is < 6.00.

In the case of `CCNC1=N[C@@H]2[C@@H](O)[C@H](O)[C@@H](Cn3cc(COc4ccccc4OC)nn3)O[C@@H]2S1` [compound 88], the pIC50 in experiment [1] was > 7.00. The pEC50 in experiment [2] is < 6.00.

For the compound `CCNC1=N[C@@H]2[C@@H](O)[C@H](O)[C@@H](Cn3cc(C(O)c4ccccc4)nn3)O[C@@H]2S1` (stereo partly drawn) [compound 68], in experiment [1], the pIC50 is > 7.00. Also, the pEC50 in experiment [2] is < 6.00.

For `CCNC1=N[C@@H]2[C@@H](O)[C@H](O)[C@@H](Cn3cc(COc4ccccc4C#N)nn3)O[C@@H]2S1` [compound 82], in experiment [1], the negative-log IC50 (pIC50) is > 7.00. In experiment [2], the negative-log EC50 (pEC50) is < 6.00.

`CCNC1=N[C@@H]2[C@@H](O)[C@H](O)[C@@H](Cn3cc(CN(C)c4ccccc4)nn3)O[C@@H]2S1` [compound 71]: in experiment [1], the negative-log IC50 (pIC50) is 6.30 to 7.00. The pEC50 in experiment [2] was < 6.00.

Take `CCNC1=N[C@@H]2[C@@H](O)[C@H](O)[C@@H](Cn3cc(Cn4cccc4)nn3)O[C@@H]2S1` [compound 66]: the pIC50 in experiment [1] (setting [3]) is > 7.00. Further, the negative-log EC50 (pEC50) in experiment [2] was < 6.00.
